In the Kinase Knowledgebase extract (Sharma et al. 2016):
pIC50: −log10 of the molar value.

Legend:
[1] = target: EGFR (human) (UniProt P00533); settings: a431
[2] = target: EGFR (UniProt P00533)
[3] = target: EGFR (murine) (UniProt P00533); settings: balb/mk cells
[4] = target: EGFR (human) (UniProt P00533); settings: a431, concentration not given here

Sequence of EGFR (human) (P00533 whole entry, looked up): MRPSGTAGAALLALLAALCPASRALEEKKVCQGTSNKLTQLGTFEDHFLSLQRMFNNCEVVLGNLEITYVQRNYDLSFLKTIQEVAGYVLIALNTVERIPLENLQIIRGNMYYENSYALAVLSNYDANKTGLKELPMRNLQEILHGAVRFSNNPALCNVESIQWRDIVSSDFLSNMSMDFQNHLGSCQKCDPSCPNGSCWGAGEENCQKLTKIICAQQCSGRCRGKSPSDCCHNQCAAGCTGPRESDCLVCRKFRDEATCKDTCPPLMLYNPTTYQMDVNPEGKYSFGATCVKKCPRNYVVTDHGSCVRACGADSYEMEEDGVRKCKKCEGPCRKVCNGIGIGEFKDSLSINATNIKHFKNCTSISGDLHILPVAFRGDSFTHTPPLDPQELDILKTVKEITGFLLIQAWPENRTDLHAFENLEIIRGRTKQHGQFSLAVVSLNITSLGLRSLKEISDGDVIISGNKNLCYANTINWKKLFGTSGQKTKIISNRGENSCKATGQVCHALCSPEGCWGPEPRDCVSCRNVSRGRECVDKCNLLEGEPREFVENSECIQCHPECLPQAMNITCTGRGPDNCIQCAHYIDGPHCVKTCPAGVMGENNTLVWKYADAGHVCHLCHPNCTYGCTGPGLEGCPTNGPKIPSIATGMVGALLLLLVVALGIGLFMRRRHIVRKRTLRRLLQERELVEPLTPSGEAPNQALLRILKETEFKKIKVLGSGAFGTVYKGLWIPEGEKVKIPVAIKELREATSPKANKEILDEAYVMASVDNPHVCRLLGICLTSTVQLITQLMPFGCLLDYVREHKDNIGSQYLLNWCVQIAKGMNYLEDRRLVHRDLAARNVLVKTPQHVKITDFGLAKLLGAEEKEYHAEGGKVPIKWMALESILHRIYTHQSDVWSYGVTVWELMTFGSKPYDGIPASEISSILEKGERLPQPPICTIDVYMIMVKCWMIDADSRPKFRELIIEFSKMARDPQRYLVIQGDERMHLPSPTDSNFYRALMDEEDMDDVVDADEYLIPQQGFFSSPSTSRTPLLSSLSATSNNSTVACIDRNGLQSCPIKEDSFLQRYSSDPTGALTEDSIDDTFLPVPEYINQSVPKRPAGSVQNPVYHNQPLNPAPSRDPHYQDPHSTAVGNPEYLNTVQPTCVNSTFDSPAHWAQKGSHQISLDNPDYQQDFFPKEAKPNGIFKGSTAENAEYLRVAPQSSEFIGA
Sequence of EGFR (murine) (P00533 whole entry, looked up): as above
Sequence of EGFR (P00533 whole entry, looked up): as above

SMILES | pIC50 [1] | pIC50 [3] | other results
C=C(CN1CCCCC1)C(=O)c1ccc(OCc2ccccc2)cc1 | < 4.00 |  | 
N#CC(C#N)=Cc1cc(O)c(O)c(O)c1 |  | 4.51 | pIC50 [2]: 4.15
C=C(CN1CCN(C)CC1)C(=O)c1ccc(OCc2ccccc2)cc1 | < 4.00 | 6.02 | pIC50 [2]: 5.82
C=C(CN(C)C)C(=O)c1ccc(OCc2ccccc2)c(O)c1 | < 4.00 |  | 
CC(CN(C)C)C(=O)c1ccc(OS(=O)(=O)c2ccc(C(=O)O)cc2)cc1 (stereo not given) |  | < 4.30 | 
C=C(CN(C)C)C(=O)c1ccccc1 | < 4.00 |  | 
C=C(CN(C)C)C(=O)c1ccc(OS(=O)(=O)c2ccc(C(=O)O)cc2)cc1 |  | < 4.30 | 
C=C(CN1CCOCC1)C(=O)c1ccc(OCc2ccccc2)cc1 |  |  | inhibition [4]: 100%

Further lines, with some results ahead:

pIC50 [1] | pIC50 [3] | SMILES | other results
 | < 4.30 | CN(C)CCCC(=O)c1ccc(OCc2ccccc2)cc1 | 
< 4.00 |  | CCOC(=O)C1CCN(CCC(=O)c2ccc(OCc3ccccc3)cc2)CC1 | 
< 4.00 |  | O=C(CCN1CCOCC1)c1ccc(OCc2ccccc2)cc1 | 
< 4.00 |  | CN(C)CCC(=O)c1ccc(OCc2ccccc2)cc1 | 
